Measurements as given in ChEMBL document CHEMBL2074440, “Molecular cloning, chromosomal localization, and functional characterization of a human liver Na+/bile acid cotransporter” (J Clin Invest, 1994).
Blank lines part the entries; values can stand above or below the molecule they belong to.

Legend:
Design in all cases: scale not given: the % may be the effect or the level left
[1] = biological target: T1, Hepatic sodium/bile acid cotransporter (Homo sapiens, UniProt Q14973); experiment: TP_TRANSPORTER: inhibition of Taurocholate uptake (Taurochorate: 10 uM, Taurolithocholate: 100 uM) in Xenopus laevis oocytes; format: functional, cell-based, Oocyte; conditions: probe taurocholate (10 uM), read-out: Activity
T1 sequence (Q14973 whole entry): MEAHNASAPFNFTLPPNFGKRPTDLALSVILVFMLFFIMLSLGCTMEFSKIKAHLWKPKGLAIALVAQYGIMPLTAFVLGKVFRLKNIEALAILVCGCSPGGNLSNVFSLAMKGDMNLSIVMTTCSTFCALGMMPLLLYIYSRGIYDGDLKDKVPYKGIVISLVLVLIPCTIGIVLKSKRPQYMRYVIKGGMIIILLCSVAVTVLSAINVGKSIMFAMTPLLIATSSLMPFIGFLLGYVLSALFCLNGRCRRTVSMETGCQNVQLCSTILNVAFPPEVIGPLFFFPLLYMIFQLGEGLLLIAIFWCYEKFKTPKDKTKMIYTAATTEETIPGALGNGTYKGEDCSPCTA

[2] = biological target: T1, Hepatic sodium/bile acid cotransporter; experiment: TP_TRANSPORTER: inhibition of Taurocholate uptake (Taurochorate: 10 uM, Lithocholate: 100 uM) in Xenopus laevis oocytes; format: functional, cell-based, Oocyte; conditions: probe taurocholate (10 uM), read-out: Activity
[3] = biological target: T1, Hepatic sodium/bile acid cotransporter; experiment: TP_TRANSPORTER: inhibition of Taurocholate uptake (Taurochorate: 10 uM, TCDC: 100 uM) in Xenopus laevis oocytes; format: functional, cell-based; conditions: oocyte
[4] = biological target: T1, Hepatic sodium/bile acid cotransporter; experiment: TP_TRANSPORTER: inhibition of Taurocholate uptake (Taurochorate: 10 uM, UDCA: 100 uM) in Xenopus laevis oocytes; format: functional, cell-based, Oocyte; conditions: probe taurocholate (10 uM), read-out: Activity
[5] = biological target: T1, Hepatic sodium/bile acid cotransporter; experiment: TP_TRANSPORTER: inhibition of Taurocholate uptake (Taurochorate: 10 uM, Bumetanide: 500 uM) in Xenopus laevis oocytes; format: functional, cell-based; conditions: oocyte
[6] = biological target: T1, Hepatic sodium/bile acid cotransporter; experiment: TP_TRANSPORTER: inhibition of Taurocholate uptake (Taurochorate: 10 uM, TUDC: 100 uM) in Xenopus laevis oocytes; format: functional, cell-based; conditions: oocyte
[7] = biological target: T1, Hepatic sodium/bile acid cotransporter; experiment: TP_TRANSPORTER: inhibition of Taurocholate uptake (Taurochorate: 10 uM, BSP: 100 uM) in Xenopus laevis oocytes; format: functional, cell-based, Oocyte; conditions: probe taurocholate (10 uM), read-out: Activity
[8] = biological target: T1, Hepatic sodium/bile acid cotransporter; experiment: TP_TRANSPORTER: inhibition of Taurocholate uptake (Taurochorate: 10 uM, CDCA: 100 uM) in Xenopus laevis oocytes; format: functional, cell-based; conditions: oocyte
[9] = biological target: T1, Hepatic sodium/bile acid cotransporter; experiment: TP_TRANSPORTER: inhibition of Taurocholate uptake (Taurochorate: 10 uM, TDCA: 100 uM) in Xenopus laevis oocytes; format: functional, cell-based; conditions: oocyte
[10] = biological target: T1, Hepatic sodium/bile acid cotransporter; experiment: TP_TRANSPORTER: inhibition of Taurocholate uptake (Taurochorate: 10 uM, Glycholithocholate: 100 uM) in Xenopus laevis oocytes; format: functional, cell-based, Oocyte; conditions: probe taurocholate (10 uM), read-out: Activity
[11] = biological target: T1, Hepatic sodium/bile acid cotransporter; experiment: TP_TRANSPORTER: inhibition of Taurocholate uptake (Taurochorate: 10 uM, GCDCA: 100 uM) in Xenopus laevis oocytes; format: functional, cell-based, Oocyte; conditions: probe taurocholate (10 uM), read-out: Activity
[12] = biological target: T1, Hepatic sodium/bile acid cotransporter; experiment: TP_TRANSPORTER: inhibition of Taurocholate uptake (Taurochorate: 10 uM, GC: 100 uM) in Xenopus laevis oocytes; format: functional, cell-based; conditions: oocyte

activity at 100 µM [1]: 33%
Compound: C[C@H](CCC(=O)NCCS(=O)(=O)O)[C@H]1CC[C@H]2[C@@H]3CC[C@@H]4C[C@H](O)CC[C@]4(C)[C@H]3CC[C@]12C [TAUROLITHOCHOLIC ACID]

Compound: C[C@H](CCC(=O)O)[C@H]1CC[C@H]2[C@@H]3CC[C@@H]4C[C@H](O)CC[C@]4(C)[C@H]3CC[C@]12C [LITHOCHOLIC ACID]
activity at 100 µM [2]: 63%

Activity [3]: 19%
Compound: C[C@H](CCC(=O)NCCS(=O)(=O)O)[C@H]1CC[C@H]2[C@@H]3[C@H](O)C[C@@H]4C[C@H](O)CC[C@]4(C)[C@H]3CC[C@]12C [TAUROCHENODEOXYCHOLATE]

Compound: C[C@H](CCC(=O)O)[C@H]1CC[C@H]2[C@@H]3[C@@H](O)C[C@@H]4C[C@H](O)CC[C@]4(C)[C@H]3CC[C@]12C [URSODIOL]
activity at 100 µM [4]: 45%

Activity [5]: 71%
Compound: CCCCNc1cc(C(=O)O)cc(S(N)(=O)=O)c1Oc1ccccc1 [BUMETANIDE]

Activity [6]: 8%
Compound: C[C@H](CCC(=O)NCCS(=O)(=O)O)[C@H]1CC[C@H]2[C@@H]3[C@@H](O)C[C@@H]4C[C@H](O)CC[C@]4(C)[C@H]3CC[C@]12C [TAURURSODIOL]

Compound: O=C1OC(c2ccc(O)c(S(=O)(=O)O)c2)(c2ccc(O)c(S(=O)(=O)O)c2)c2c(Br)c(Br)c(Br)c(Br)c21 [SULFOBROMOPHTHALEIN SODIUM]
activity at 100 µM [7]: 41%

Compound: C[C@H](CCC(=O)O)[C@H]1CC[C@H]2[C@@H]3[C@H](O)C[C@@H]4C[C@H](O)CC[C@]4(C)[C@H]3CC[C@]12C [CHENODIOL]
Activity [8]: 13%

Activity [9]: 10%
Compound: C[C@H](CCC(=O)NCCS(=O)(=O)O)[C@H]1CC[C@H]2[C@@H]3CC[C@@H]4C[C@H](O)CC[C@]4(C)[C@H]3C[C@H](O)[C@]12C [TAURODEOXYCHOLIC ACID]

Compound: C[C@H](CCC(=O)NCC(=O)O)[C@H]1CC[C@H]2[C@@H]3CC[C@@H]4C[C@H](O)CC[C@]4(C)[C@H]3CC[C@]12C [LITHOGLYCOCHOLATE]
activity at 100 µM [10]: 24%

Compound: C[C@H](CCC(=O)NCC(=O)O)[C@H]1CC[C@H]2[C@@H]3[C@H](O)C[C@@H]4C[C@H](O)CC[C@]4(C)[C@H]3CC[C@]12C [GLYCOCHENODEOXYCHOLATE]
activity at 100 µM [11]: 14%

Activity [12]: 44%
Compound: C[C@H](CCC(=O)NCC(=O)O)[C@H]1CC[C@H]2[C@@H]3[C@H](O)C[C@@H]4C[C@H](O)CC[C@]4(C)[C@H]3C[C@H](O)[C@]12C [GLYCOCHOLIC ACID]
